Each compound was assayed against T1, CDK2 (Homo sapiens, UniProt P24941) (assay: Inhibition of CDK2: phospho-Rb (S807/811) HTRF measurement in cells). Conditions: OVCAR3 cells (CDK2 dependent cell line), 24 h compound treatment, read-out: pRb.
T1 construct: High-Throughput Measurement of Cellular Endogenous CDK2; endogenous in cells; host or cells: OVCAR3
Assay type: cell-based
Method: Phosphorylation of RB protein at S807/811 are measured using HTRF phospho-RB cellular kits (Cat #64RBS807PEG) from Cisbio.
On Day 1, OVCAR3 (CDK2 dependent cell line) cells are seeded into 96-well tissue-culture treated plates at 20,000 cells/well in 200 μL and incubated overnight at 37° C. in CO2 atmosphere. On Day 2, the cells are treated with test compounds at concentrations from 0.3 to 10,000 nM using HP D300 digital dispenser. Twenty-four hours after compound treatment, cell culture media is removed by flicking the plate and tapping the plate against clean paper towel. Immediately 30 μL 1× lysis buffer is supplemented from the kit and the plate is incubated at room temperature on shaker for 30 min. After homogenization by pipetting up and down, 8 μL cell lysate from 96-well cell culture plate is transferred to 384-well small volume white detection plate. 2 μL premixed detection solution is added and the plate was covered with sealer. To prepare the detection solution, d2 conjugated-phospho-RB antibody and Eu-cryptate conjugated phosphor-RB antibody are diluted into detection buffer following manufacturer's instruction. Detection plates are incubated for 4 h at room temperature and read on ClarioStar (BMG Labtech) in TR-FRET mode ([…]). The TR-FRET ratio (665 nM/620 nM) is plotted against the compound concentration and normalized to DMSO controls. Half maximal inhibition concentration (IC50) values are calculated with a four-parameter logistic fit using GraphPad Prism (version 8; La Jolla, CA).

SMILES	IC50
Cn1nc(N2CCC(=O)NC2=O)c2ccc(C3CCN(Cc4cccc(S(=O)(=O)N5CCC(Nc6ncc(C(F)(F)F)c(O[C@@H]7CCC[C@@H]7O)n6)CC5)c4)CC3)cc21 (racemic) [Cpd 3, Rac-1-(6-(1-(3-((4-((4-(((1R,2S)-2-hydroxy-cyclopentyl)oxy)-5-(trifluoro-methyl)-pyrimidin-2-yl)amino)piperidin-1-yl)-sulfonyl)benzyl)piperidin-4-yl)-1-methyl-1H-indazol-3-yl)dihydropyrimidine-2,4(1H,3H)-dione]	28 to 100 nM
Cn1nc(N2CCC(=O)NC2=O)c2ccc(C3CCN(CC4CCN(S(=O)(=O)c5ccc(Nc6ncc(C(F)(F)F)c(O[C@H]7CCC[C@H]7O)n6)cc5)CC4)CC3)cc21 (racemic) [compound 6, Rac-1-(6-(1-((1-((4-((4-(((1S,2R)-2-hydroxy-cyclopentyl)oxy)-5-(trifluoromethyl)-pyrimidin-2-yl)amino)phenyl)-sulfonyl)-piperidin-4-yl)methyl)piperidin-4-yl)-1-methyl-1H-indazol-3-yl)dihydropyrimidine-2,4(1H,3H)-dione]	100 to 500 nM
Cn1nc(N2CCC(=O)NC2=O)c2ccc(C3CCN(Cc4cccc(S(=O)(=O)N5CCC(Nc6ncc(C(F)(F)F)c(N7CCCCC7)n6)CC5)c4)CC3)cc21 [Cpd 1, 1-(1-methyl-6-(1-(3-((4-((4-(piperidin-1-yl)-5-(trifluoromethyl)pyrimidin-2-yl)amino)-piperidin-1-yl)sulfonyl)benzyl)-piperidin-4-yl)-1H-indazol-3-yl)dihydropyrimidine-2,4(1H,3H)-dione]	100 to 500 nM
Cn1nc(N2CCC(=O)NC2=O)c2ccc(C3CCN(Cc4cccc(S(=O)(=O)N5CCC(Nc6ncc(C(F)(F)F)c(OC7CCCC7)n6)CC5)c4)CC3)cc21 [Cpd 2, 1-(6-(1-(3-((4-((4-(cyclopentyloxy)-5-(trifluoromethyl)pyrimidin-2-yl)amino)-piperidin-1-yl)sulfonyl)benzyl)-piperidin-4-yl)-1-methyl-1H-indazol-3-yl)dihydro-pyrimidine-2,4(1H,3H)-dione]	28 to 100 nM
Cn1nc(N2CCC(=O)NC2=O)c2ccc(C3CCN(Cc4cccc(S(=O)(=O)N5CCC(Nc6ncc(C(F)(F)F)c(N7CCCC7)n6)CC5)c4)CC3)cc21 [Cpd 4, 1-(1-methyl-6-(1-(3-((4-((4-(pyrrolidin-1-yl)-5-(trifluoromethyl)pyrimidin-2-yl)amino)-piperidin-1-yl)sulfonyl)benzyl)piperidin-4-yl)-1H-indazol-3-yl)dihydropyrimidine-2,4(1H,3H)-dione]	100 to 500 nM
Cn1nc(N2CCC(=O)NC2=O)c2ccc(C3CCN(Cc4cccc(S(=O)(=O)N5CCC(Nc6ncc(C(F)(F)F)c(OC7CCC7)n6)CC5)c4)CC3)cc21 [Cpd 5, 1-(6-(1-(3-((4-((4-cyclobutoxy-5-(trifluoro-methyl)pyrimidin-2-yl)amino)piperidin-1-yl)sulfonyl)benzyl)piperidin-4-yl)-1-methyl-1H-indazol-3-yl)dihydropyrimidine-2,4(1H,3H)-dione]	28 to 100 nM
